Drawing on patent US7776862B2, “Pyridyl and phenyl substituted piperazine-piperidines with CXCR3 antagonist activity” (Schering Corporation, priority 2005, dated 2010), this text covers IC50 for 59 molecules.

For the assay, the target named is T1, human CXCR3 (N-delta 4) (Homo sapiens, UniProt P49682).
T1 construct: CD8 leader; Flag tag; expressed in transfected cells; membranes used
T1 sequence (P49682 5-368 limits assumed): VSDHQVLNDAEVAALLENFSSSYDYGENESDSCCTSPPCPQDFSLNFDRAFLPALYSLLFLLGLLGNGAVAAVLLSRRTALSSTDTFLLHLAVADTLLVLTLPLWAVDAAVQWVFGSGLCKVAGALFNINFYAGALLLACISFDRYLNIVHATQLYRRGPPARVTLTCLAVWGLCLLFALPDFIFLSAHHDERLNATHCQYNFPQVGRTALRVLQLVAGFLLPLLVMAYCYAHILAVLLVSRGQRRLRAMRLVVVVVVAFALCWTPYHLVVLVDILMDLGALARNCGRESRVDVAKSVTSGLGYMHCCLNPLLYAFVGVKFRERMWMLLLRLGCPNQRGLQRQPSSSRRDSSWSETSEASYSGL
Put plainly: Human CXCR3 (N-delta 4) scintillation proximity assay (SPA), [125I] IP-10 binding. The conditions noted are these: IC50 rating; Ba/F3-hCXCR3 (N-delta 4) membranes, 25 pM [125I] IP-10. In short, it runs like this: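 IP-10 and compound titrations added together. The receptor source was SPA beads bearing membranes from Ba/F3 cells transfected with human CXCR3 (N-delta 4) carrying a CD8 leader and Flag tag.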
A general note: Scintillation proximity formats need no separation of bound from free tracer.

Where only a bound is given, the exact number is not on record here.

For orientation: IC50 means the concentration at which inhibition is half-maximal. Regarding `C[C@H]1CN(c2ncc(C(=O)Nc3cc[nH]n3)cc2Cl)CCN1C1CCN(Cc2ccc(Cl)cc2)CC1` [compound 312], the IC50 is 25 to 100 nM.

Take `C[C@H]1CN(c2ncc(C(=O)NCc3ccc(F)c(F)c3)cc2Cl)CCN1C1CCN(C(=O)c2ccc(C#N)cc2)CC1` [compound 248]: the IC50 is less than 25 nM. The result for `O=C(NCc1ccc(F)c(Cl)c1)c1cnc(N2CCN(C3CCN(Cc4ccc(F)cc4)CC3)CC2)c(Cl)c1` [compound 144] reads 25 to 100 nM; that for `CNC(=O)c1cnc(N2CCN(C3CCN(C(C)c4ccc(Cl)cc4)CC3)[C@@H](C)C2)c(Cl)c1` (some centres unmarked) [compound 243], less than 25 nM. For `CC[C@H]1CN(c2ncc(CO)cc2Cl)CCN1C1CCN(Cc2ccc(Br)cc2F)CC1` [compound 383] the value was less than 25 nM; for `CCCNC(=O)c1cnc(N2CCN(C3CCN(Cc4ccc(Cl)cc4)CC3)CC2)c(Cl)c1` [compound 192], greater than 100 nM.

Turning to `CNC(=O)c1cnc(N2CCN(C3CCN([C@@H]4CCc5cc(Cl)ccc54)CC3)[C@@H](C)C2)c(Cl)c1` [compound 271], the IC50 was in the range of 25 to 100 nM. Molecule `CNC(=O)c1cnc(N2CCN(C3CCN(Cc4ccc(Cl)cc4)CC3C)CC2)c(Cl)c1` (centres unmarked) [compound 302] registered an IC50 of 25 to 100 nM. In turn, `CC[C@H]1CN(c2ncc(C(=O)NN)cc2Cl)CCN1C1CCN(C(=O)c2ccc(Br)cc2)CC1` [compound 342] returned an IC50 greater than 100 nM. For `CC[C@H]1CN(c2ncc(C(N)=O)cc2Cl)CCN1C1CCN(Cc2ccc(Cl)cc2N2CCOC2=O)CC1` [compound 460] the value was 25 to 100 nM. With `CCNC(=O)c1cnc(N2CCN(C3CCN(Cc4ccc(Cl)cc4)C(C)C3)[C@@H](CC)C2)c(Cl)c1` (some centres unmarked) [compound 220], the IC50 is less than 25 nM. The result for `O=C(NCc1ccc(Br)cc1)c1cnc(N2CCN(C3CCN(Cc4ccc(F)cc4)CC3)CC2)c(Cl)c1` [compound 109] reads 25 to 100 nM; that for `O=C(NCCOc1ccccc1)c1cnc(N2CCN(C3CCN(Cc4ccc(-c5ccccc5)cc4)CC3)CC2)c(Cl)c1` [compound 165], greater than 100 nM; that for `CNC(=O)c1cnc(N2CCN(C3CCN(C(=O)c4ccc(Cl)cc4)CC3)[C@@H](C)C2)c(Cl)c1` [compound 337], greater than 100 nM. With `O=C(NCc1ccc(Cl)cc1Cl)c1cnc(N2CCN(C3CCN(Cc4ccc(F)cc4F)CC3)CC2)c(Cl)c1` [compound 59], the IC50 was greater than 100 nM. Molecule `CNC(=O)c1cnc(N2CCN(C3CCN(Cc4ccc(Cl)cc4Cl)CC3)[C@@H](C)C2)c(Cl)c1` [compound 255] registered an IC50 of less than 25 nM. For `O=C(NCc1ccc(C(F)(F)F)cc1)c1cnc(N2CCN(C3CCN(Cc4ccc(Br)cc4)CC3)CC2)c(Cl)c1` [compound 31] the value was greater than 100 nM.

In turn, `O=C(NCc1ccc(C(F)(F)F)cc1)c1cnc(N2CCN(C3CCN(Cc4ccc(F)c(F)c4)CC3)CC2)c(Cl)c1` [compound 92] had an IC50 greater than 100 nM. For `CC[C@H]1CN(c2ncc(C(=O)NC)cc2Cl)CCN1C1CCN(Cc2ccc(Cl)cc2F)CC1` [compound 224], the IC50 was less than 25 nM.

On to `O=C(NCc1ccc(C(F)(F)F)cc1)c1cnc(N2CCN(C3CCN(Cc4ccc(Cl)c(F)c4)CC3)CC2)c(Cl)c1` [compound 73], for which the IC50 was greater than 100 nM. For `COc1ccc(CN2CCC(N3CCN(c4ncc(C(=O)NCc5ccc(Cl)c(Cl)c5)cc4Br)CC3)CC2)cc1` [compound 276] the value was 25 to 100 nM; for `C[C@H]1CN(c2ncc(C(=O)NCC3CCCCC3)cc2Br)CCN1C1CCN(Cc2ccc(Cl)cc2)CC1` [compound 225], less than 25 nM. As to `CC[C@H]1CN(c2ccc(CN)cn2)CCN1C1CCN(Cc2ccc(Cl)cc2)CC1` [compound 452], the IC50 is greater than 100 nM. In turn, `CC1(C)C2CCC(CNC(=O)c3cnc(N4CCN(C5CCN(Cc6ccc(Cl)cc6)CC5)CC4)c(Br)c3)C1C2` (centres unmarked) [compound 179] came in with an IC50 greater than 100 nM.

`N#Cc1ccc(CN2CCC(N3CCN(c4ncc(C(=O)NC5CCCC5)cc4Cl)CC3)CC2)cc1` [compound 190] yielded an IC50 greater than 100 nM. On to `O=C(NCc1ccc(Cl)cc1)c1cnc(N2CCN(C3CCN(Cc4ccc(F)cc4F)CC3)CC2)c(Cl)c1` [compound 87], for which the IC50 is greater than 100 nM. As for `CC[C@H]1CN(c2ncc(C(=O)NC)cc2Cl)CCN1C1CCN(C2c3ccc(Cl)cc3CCc3cccnc32)CC1` (some centres unmarked) [compound 356], the IC50 is greater than 100 nM. For the molecule `C[C@H]1CN(c2ncc(C(=O)NCc3ccc(F)c(F)c3)cc2Cl)CCN1C1CCN(Cc2ccc(Cl)cc2)CC1` [compound 226], the IC50 is less than 25 nM. For the molecule `O=C(NCCOc1ccccc1)c1cnc(N2CCN(C3CCN(Cc4ccc(F)cc4)CC3)CC2)c(Cl)c1` [compound 60], the IC50 was greater than 100 nM. The result for `CCNC(=O)N(CC)Cc1cnc(N2CCN(C3CCN(Cc4ccc(Cl)cc4F)CC3)[C@@H](CC)C2)c(Cl)c1` [compound 409] reads 25 to 100 nM. The molecule `Cc1cc(C(=O)NCc2ccc(Cl)c(Cl)c2)cnc1N1CCN(C2CCN(Cc3ccc(Cl)cc3)CC2)CC1` [compound 201] registered an IC50 greater than 100 nM.

As to `COc1ccc(CN2CCC(N3CCN(c4ncc(C(=O)NCc5ccc(F)cc5)cc4Cl)CC3)CC2)cc1` [compound 50], the IC50 is greater than 100 nM. The result for `O=C(NCc1ccc(Br)cc1)c1cnc(N2CCN(C3CCN(Cc4ccc(F)c(F)c4)CC3)CC2)c(Cl)c1` [compound 99] reads 25 to 100 nM; that for `O=C(NCc1ccc(Br)cc1)c1cnc(N2CCN(C3CCN(Cc4ccc(F)cc4F)CC3)CC2)c(Cl)c1` [compound 67], greater than 100 nM; that for `C[C@H]1CN(c2ccc(C(=O)NCc3ccc(F)c(F)c3)cc2Cl)CCN1C1(C)CCN(Cc2ccc(Cl)cc2)CC1` [compound 204], 25 to 100 nM.

`O=C(NCc1cc(Cl)cc(Cl)c1)c1cnc(N2CCN(C3CCN(Cc4ccc(F)c(F)c4)CC3)CC2)c(Cl)c1` [compound 78] yielded an IC50 greater than 100 nM.

`O=C(NCc1ccc(F)cc1)c1cnc(N2CCN(C3CCN(Cc4ccc(Cl)c(F)c4)CC3)CC2)c(Cl)c1` [compound 139] had an IC50 of 25 to 100 nM.

As to `N#Cc1ccc(CN2CCC(N3CCN(c4ncc(C(=O)NCc5ccc(Cl)c(Cl)c5)cc4Cl)CC3)CC2)cc1` [compound 317], the IC50 fell in the range of 25 to 100 nM. For `CC(C)NC(=O)c1cnc(N2CCN(C3CCN(Cc4ccc(Cl)cc4)CC3)[C@@H](C)C2)c(Cl)c1` [compound 236], the IC50 was less than 25 nM. `O=C(NCc1ccc(F)cc1F)c1cnc(N2CCN(C3CCN(Cc4ccc(F)cc4F)CC3)CC2)c(Cl)c1` [compound 41] had an IC50 greater than 100 nM. Molecule `N#Cc1ccc(CN2CCC(N3CCN(c4ncc(C(=O)NCCOc5ccccc5)cc4Cl)CC3)CC2)cc1` [compound 338] registered an IC50 greater than 100 nM. The result for `CC[C@H]1CN(c2ncc(C(=O)OC)cc2Cl)CCN1C1CCN(C(=O)c2ccc(-n3cccc3)cc2)CC1` [compound 457] reads greater than 100 nM. For `N#Cc1ccc(C(=O)N2CCC(N3CCN(c4ncc(C(=O)NCc5ccc(F)c(F)c5)cc4Cl)CC3)CC2)cc1` [compound 51] the value was greater than 100 nM; for `C[C@H]1CN(c2ncc(C(=O)NCc3ccc(F)c(F)c3)cc2Cl)CCN1C1CCN(C(=O)c2ccc(Cl)cc2)CC1` [compound 307], 25 to 100 nM; for `CC[C@H]1CN(c2ncc(C(=O)NC)cc2Cl)CCN1C1CCN(C(=O)c2ccc(Cl)cc2)CC1` [compound 259], less than 25 nM. The molecule `O=C(NCc1ccc(Cl)cc1Cl)c1cnc(N2CCN(C3CCN(Cc4ccc(F)cc4)CC3)CC2)c(Cl)c1` [compound 119] registered an IC50 of 25 to 100 nM. For `O=C(NC1CCCC1)c1cnc(N2CCN(C3CCN(Cc4ccc(Cl)c(F)c4)CC3)CC2)c(Cl)c1` [compound 22], the IC50 was greater than 100 nM. In turn, `CC(c1ccc([N+](=O)[O-])cc1)N1CCC(N2CCN(c3ncc(C(=O)NCc4ccc(Cl)c(Cl)c4)cc3Cl)CC2)CC1` (centres unmarked) [compound 74] registered an IC50 greater than 100 nM. `CC[C@H]1CN(c2ncc(C(C)=O)cc2Cl)CCN1C1CCN(Cc2ccc(Cl)cc2F)CC1` [compound 427] registered an IC50 of 25 to 100 nM.

Regarding `CCNC(=O)c1cnc(N2CCN(C3CCN(Cc4ccc(Cl)cc4)CC3)[C@@H](CC)C2)c(Cl)c1` [compound 213], the IC50 was less than 25 nM.

For the molecule `CC[C@H]1CN(c2ncc(C(=O)NNC(N)=O)cc2Cl)CCN1C1CCN(Cc2ccc(Cl)cc2F)CC1` [compound 347], the IC50 is greater than 100 nM. Take `O=C(NCc1ccc(F)c(Cl)c1)c1cnc(N2CCN(C3CCN(Cc4ccc(Br)cc4)CC3)CC2)c(Cl)c1` [compound 108]: the IC50 fell in the range of 25 to 100 nM. The result for `C[C@@H]1CN(c2ncc(C(=O)NCc3ccc(F)c(F)c3)cc2Cl)CCN1C1CCN(Cc2ccc(C#N)cc2)CC1` [compound 270] reads 25 to 100 nM.

The molecule `CC(C)C[C@H]1CN(c2ncc(C(=O)NCC3CCCCC3)cc2Cl)CCN1C1CCN(Cc2ccc(Cl)cc2)CC1` [compound 197] gave an IC50 of 25 to 100 nM.

`COc1ccc(CN2CCC(N3CCN(c4ncc(C(=O)NCc5ccc(Cl)cc5F)cc4Cl)CC3)CC2)cc1` [compound 111] yielded an IC50 of 25 to 100 nM. `C[C@H]1CN(c2ncc(C(=O)NCc3ccc(Cl)c(Cl)c3)cc2Cl)CCN1C1CCN(C(=O)c2ccc(C#N)cc2)CC1` [compound 266] yielded an IC50 of less than 25 nM. `CNC(=O)c1cnc(N2CCN(C3CCN(Cc4ccccc4Cl)CC3)[C@@H](C)C2)c(Cl)c1` [compound 349] had an IC50 greater than 100 nM. Regarding `CCNC(=O)c1cnc(N2CCN(C3CCN(Cc4ccc(Cl)cc4)CC3)[C@@H](C)C2)c(Cl)c1` [compound 227], the half-inhibitory concentration (IC50) is less than 25 nM.

Molecule `O=C(NC1CCCC1)c1cnc(N2CCN(C3CCN(Cc4ccc([N+](=O)[O-])cc4)CC3)CC2)c(Cl)c1` [compound 18] showed an IC50 greater than 100 nM.
